Photoluminescence quantum yield data for 52 compounds are collected here from the Deep4Chem optical property database.

This data set in a line: photoluminescence quantum yield (fraction); solvent given as SMILES.
[1] abbreviates: in O=P(c1ccccc1)(c1ccccc1)c1ccccc1Oc1ccccc1P(=O)(c1ccccc1)c1ccccc1.

Where “and” joins values, the source holds several entries; their conditions need not be identical. Equal entries are not always repeated.

`FC(F)(F)C(F)(F)C(F)(F)C(F)(F)C(F)(F)C(F)(F)CCOc1nnc(Cl)nn1`: the photoluminescence quantum yield is, setting by setting: (in ClCCl) 0.4; (in OCC(F)(F)F) 0.26.
Where the note is “in Cc1ccccc1”, `N#Cc1cc2ccc(cc2)c2cccc3cccc(c4ccc(cc4)cc(C#N)c4ccc(cc4)c4cccc5cccc(c6ccc1cc6)c54)c32` registered a photoluminescence quantum yield of 0.55.
For `CCC1(CC)c2ccccc2-c2c1c1c(c3c2C(CC)(CC)c2cc(N(c4ccccc4)c4ccccc4)ccc2-3)C(CC)(CC)c2ccccc2-1`, the photoluminescence quantum yield (in C1CCOC1) came to 0.49.
For the compound `Cc1ccc(-c2cc(-c3ccccc3)c3c(N)nc(N4CCCC4)c(C#N)c3n2)cc1`, the photoluminescence quantum yield by setting is: (in CC#N) 0.046; (in c1ccccc1) 0.073.
Take `COc1ccc(-c2csc(/C(C#N)=C/c3ccc([N+](=O)[O-])cc3)n2)cc1`: the photoluminescence quantum yield (in CC#N) is 0.
As for `CCCCCCc1ccc2c3c(ccc2c1)O[B-](c1ccccc1)(c1ccccc1)[N+](c1ccc([N+]2=Cc4c(ccc5cc(CCCCCC)ccc45)O[B-]2(c2ccccc2)c2ccccc2)cc1)=C3`, the photoluminescence quantum yield reads like this: (in C1CCOC1) 0.32; (in CC#N) 0.27; (in Cc1ccccc1) 0.35; (in ClCCl) 0.47.
Regarding `CC[n+]1c(C=C2C(=O)C(C=C3N(C)c4ccccc4C3(C)C)=C2[O-])[se]c2ccccc21`, the photoluminescence quantum yield (in CC(C)O) came to 0.11.
Turning to `F[B-]1(F)N2C=CN=CC2=[N+]2[N+]1=Cc1c(-c3ccccc3)cc(-c3ccccc3)n1[B-]2(F)F`, where the note is “in ClCCl”, the photoluminescence quantum yield was 0.49.
Take `C(#Cc1ccccc1)c1ccccc1`: the photoluminescence quantum yield came out at 0.0015 (in CO), 0.003 (in ClC(Cl)Cl) and 0.003 (in ClCCl).
With `O=C(c1ccc2c3c(cccc13)-c1cccc3c1C2CC=C3)c1c(CCc2ccccc2)c2ccc3cccc4c5cccc6ccc1c(c65)c2c34` (stereo not drawn), the photoluminescence quantum yield (in ClCCl) is 0.17.
Compound `COC(=O)[C@H](Cc1ccccc1)Nc1c(C(C)=O)c(=O)oc2cc(N(C)C)ccc12` displayed a photoluminescence quantum yield (in ClCCl) of 0.0043.
Take `[O-]c1ccccc1-c1[nH+]c2c3ccccc3c3ccccc3c2n1-c1ccccc1`: the photoluminescence quantum yield (in Cc1ccccc1) was determined as 0.191.
Take `CC(C)[Si](C#Cc1ccc(-c2c3cccc4c5cccc6c(-c7ccc(C#C[Si](C(C)C)(C(C)C)C(C)C)cc7)c7cccc8c9cccc2c9c(c34)c(c65)c78)cc1)(C(C)C)C(C)C`: where the note is “in Cc1ccccc1”, the photoluminescence quantum yield was found to be 0.38.
`Oc1ccccc1`: the photoluminescence quantum yield (in C1CCCCC1) worked out at 0.09.
On to `CC1=CC(C)=[N+]2C1=Cc1c3ccccc3c(C#Cc3ccccc3)n1[B-]2(F)F`, for which the photoluminescence quantum yield turned out to be 0.89 (in CCCCCC); 0.88 (in CCCCCCCCO); 0.84 (in CCOC(C)=O); 0.6 (in CN(C)C=O); 0.89 (in ClCCl).
`CC(C)[Si](C#Cc1c2nsnc2c(C#C[Si](C(C)C)(C(C)C)C(C)C)c2nc3c(nc12)C1c2ccccc2C3c2ccccc21)(C(C)C)C(C)C` displayed a photoluminescence quantum yield (in CCCCCC) of 0.66.
Take `C1=Cc2ccccc2C(=Cc2ccc(C=C3c4ccccc4C=Cc4ccccc43)cc2)c2ccccc21`: the photoluminescence quantum yield (in C1CCOC1) came to 5e-05.
On to `C[C@]12SC(=O)C=C1c1nc(-c3ccc(Cl)cc3Cl)[nH]c1C1=CC(=O)S[C@@]12C`, for which, where the note is “in CC#N”, the photoluminescence quantum yield is 0.11.
`CN(C)c1ccc(C2=C3C=C(c4ccc(C=C(C#N)C#N)cc4)S[C@]34c3ccccc3[C@H]2c2ccccc24)cc1` gave a photoluminescence quantum yield (in ClCCl) of 0.01.
The compound `O=c1c2ccccc2n2c3ccccc3c(=O)c3cccc1c32` showed a photoluminescence quantum yield (in c1cc(-n2c3ccccc3c3ccccc32)cc(-n2c3ccccc3c3ccccc32)c1) of 0.724.
`O=[N+]([O-])c1ccc(-c2nc3c(c4c2-c2ccccc2CC4)-c2ccccc2CC3)cc1`: the photoluminescence quantum yield by setting is: (in CC#N) 0.037; (in CS(C)=O) 0.085; (in ClCCl) 0.059.
Turning to `c1ccc(-c2nc(-c3ccccc3)nc(-c3ccc(-n4c5ccccc5c5cc(-n6c7ccccc7c7ccccc76)ccc54)cc3)n2)cc1`, under “in Cc1ccccc1”, the photoluminescence quantum yield was determined as 0.72.
Regarding `O=c1cc2cc(O)c3c(O)ccc4ccc(o1)c2c43`, the photoluminescence quantum yield (in CC1CCCO1) was determined as 0.52.
Compound `O=S(=O)([O-])c1ccc([O-])c2ccccc12` displayed a photoluminescence quantum yield (in O) of 0.26.
`O=C1CCCC2=C1C(c1cccc(Cl)c1)c1c(c3ccccc3oc1=O)N2` (stereo not drawn) registered a photoluminescence quantum yield (in CS(C)=O) of 0.6.
With `Cc1ccccc1C1=C2C=c3c(oc4c3ccc3ccccc34)=[N+]2[B-](F)(F)n2c1cc1c3ccc4ccccc4c3oc12`, the photoluminescence quantum yield runs as follows: (in C1CCCCC1) 0.81; (in CCOC(C)=O) 0.69; (in CO) 0.48.
Where the note is “in ClC(Cl)Cl”, `CCCCCCCCn1c(=O)c2cc3c(-c4ccc(N(c5ccccc5)c5ccccc5)cc4)c4cc5c(=O)n(CCCCCCCC)c(=O)c5cc4c(-c4ccc(N(c5ccccc5)c5ccccc5)cc4)c3cc2c1=O` displayed a photoluminescence quantum yield of 0.03.
Under “in ClCCl”, `Cc1cc2sccc2c2[nH]c3ccccc3c12` gave a photoluminescence quantum yield of 0.053.
The compound `N#Cc1cc(C#N)c(-n2c3ccccc3c3cc(-c4cccc5c4c4ccccc4n5-c4cc(-n5c6ccccc6c6ccccc65)c(C#N)cc4C#N)ccc32)cc1-n1c2ccccc2c2ccccc21` gave a photoluminescence quantum yield under setting [1] of 0.66.
In the case of `CC1=c2cc3c(C)c4n(c3cc2=[N+]2C1=Cc1c3ccccc3c(C)n1[B-]2(F)F)[B-](F)(F)[N+]1=C(C)c2ccccc2C1=C4`, the photoluminescence quantum yield (in ClC(Cl)Cl) was determined as 0.36.
On the same count and under the same terms, as for `CC(C)(C)n1c(=O)c2cc3ccc4cccc5ccc(c2c1=O)c3c45`, the figure is 0.41 and 0.408.
`Cc1cc(C)c(-c2c3ccccc3c3ccc4cc5c(-c6c(C)cc(C)cc6C)c6ccccc6c6ccc7cc2c3c4c7c56)c(C)c1` registered a photoluminescence quantum yield (in ClCCl) of 0.17.
As to `O=C(O)C1=C(C(=O)O)C2=C[C@H]3c4ccccc4[C@]2(S1)c1ccccc13`, the photoluminescence quantum yield (in ClCCl) stood at 0.72.
For the compound `CCN(CC)c1ccc2c(c1)oc(=O)c1cc3c(-c4ccccc4)nn(C)c3nc12`, the photoluminescence quantum yield is, setting by setting: (in C1CCCCC1) 0.338; (in CCOC(C)=O) 0.202; (in CN(C)C=O) 0.015; (in CO) 0.002; (in ClCCl) 0.292.
For `N#Cc1ccc(/C=C/c2c3ccccc3cc3ccccc23)cc1`, the photoluminescence quantum yield (in CC1CCCCC1) stood at 0.27; the photoluminescence quantum yield (in CC#N) is 0.003; the photoluminescence quantum yield (in CO) came to 0.029; the photoluminescence quantum yield (in Cc1ccccc1) worked out at 0.23; the photoluminescence quantum yield (in ClC(Cl)Cl) was 0.05.
For the compound `Cc1ccc(/C=C/c2ccccc2-[n+]2noc([O-])c2C)cc1`, the photoluminescence quantum yield (in C1CCCCC1) stood at 0.0019 and the photoluminescence quantum yield (in CC#N) is 0.0019.
With `CCOc1ccc2c(-c3nc(-c4cccc(C)c4)no3)cc(=O)oc2c1`, the photoluminescence quantum yield is 0.68 (in CCO) and 0.23 (in ClC(Cl)Cl).
Regarding `CC(C)(C)NC(=O)c1ccc(F)c2ccc3c4ccccc4c4ccccc4c3c12`, where the note is “in ClCCl”, the photoluminescence quantum yield is 0.04.
`CCCCCCN1C(=O)c2cccc3c(-c4ccc([N+](=O)[O-])s4)ccc(c23)C1=O` gave a photoluminescence quantum yield (in ClC(Cl)Cl) of 0.
As for `CCCCC(CC)Cn1c2cc(C#N)ccc2c2ccc(C#Cc3ccc4ccc5c(C#Cc6ccc7c8ccc(C#N)cc8n(CC(CC)CCCC)c7c6)cc(C#Cc6ccc7c8ccc(C#N)cc8n(CC(CC)CCCC)c7c6)c6ccc3c4c56)cc21` (stereo not drawn), for the setting “in ClCCl”, the photoluminescence quantum yield is 0.64.
`C[n+]1cc2ccc3c[n+](C)cc4ccc(c1)c2c34` had a photoluminescence quantum yield (in CC#N) of 0.6.
Under setting [1], `Cc1cc(N2c3ccccc3C(C)(C)c3ccccc32)ccc1-c1cc(-c2ccc(N3c4ccccc4C(C)(C)c4ccccc43)cc2C)ncn1` had a photoluminescence quantum yield of 0.71.
Where the note is “in ClC(Cl)Cl”, `CCN(CC)c1ccc2cc(-c3cn4cc(OC)ccc4n3)c(=O)oc2c1` had a photoluminescence quantum yield of 0.9.
`COc1ccc2c(c1)c1cc(OC)ccc1n2-c1nc2ccccc2nc1-n1c2ccc(OC)cc2c2cc(OC)ccc21`: the photoluminescence quantum yield (in Cc1ccccc1) was 0.13.
As for `CCn1c2ccccc2c2cc(C#Cc3cc(C#Cc4ccc5c(c4)c4ccccc4n5CC)ncn3)ccc21`, the photoluminescence quantum yield came to 0.74 (in C1CCOC1); 0.83 (in CCOC(C)=O); 0.68 (in CN(C)C=O); 0.84 (in Cc1ccccc1); 0.72 (in ClCCl).
On to `Cc1cc(C)c2cc3cc(C)ncc3cc2c1`, for which the photoluminescence quantum yield (in CCO) stood at 0.44.
As to `CC1(C)c2ccccc2N(c2ccc(-c3cccc(C#N)c3)cc2)c2ccccc21`, the photoluminescence quantum yield reads like this: (in Cc1ccccc1) 0.112; (in N#Cc1ccc2c(c1)c1ccccc1n2-c1cccc(-n2c3ccccc3c3ccccc32)c1) 0.15.
Where the note is “in C1CCOC1”, `CC1=C(C#Cc2ccc(N(c3ccccc3)c3ccccc3)cc2)C(C)=[N+]2C1=C(c1ccccc1)c1c(C)c(C#Cc3ccc(N(c4ccccc4)c4ccccc4)cc3)c(C)n1[B-]2(F)F` returned a photoluminescence quantum yield of 0.31.
In the case of `Cc1cc(=O)oc2ccc3ccc(-c4cn(Cc5ccccc5)nn4)cc3c12`, the photoluminescence quantum yield (in CCO) amounted to 0.35.
Consider `O=C(c1ccc(N(c2ccccc2)c2ccccc2)cc1)[C@H]1[C@H](c2ccccc2)C[C@](O)(c2ccccn2)C[C@]1(O)c1ccccn1`, for which the photoluminescence quantum yield reads like this: (in C1CCOC1) 0.48; (in CC#N) 0.02; (in CCO) 0.01; (in CCOC(C)=O) 0.4; (in CN(C)C=O) 0.03; (in ClCCl) 0.25. This compound yielded a photoluminescence quantum yield (in c1ccccc1) of 0.93.
For the compound `COC(=O)C12N=N[C@](C(=O)OC)(C3C4CCC(C4)C31)C1[C@@H]3CC[C@@H](C3)[C@H]12` (stereo partly drawn), the photoluminescence quantum yield (in CC#N) was 0.09.
`Cc1nc2c(cc3c4c(cccc42)C(=O)OC3=O)o1` displayed a photoluminescence quantum yield (in CCO) of 0.073.
